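Exposure lasted 48 hours, with cells grown in 96-well plates and compounds tested at five concentrations. TGI is the concentration that stops growth completely.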 Bounds are passed on as bounds.

Among the test systems are 786-0 renal; P388 leukemia; HOP-18 NSCLC; SN12K1 renal; P388/ADR leukemia; DLD-1 colon; RXF-631 renal.
What all share (assay): NCI tumour cell line growth inhibition, 48 h

The molecule `O=C(O)CSc1nc2ccccc2[nH]1` showed a TGI in the assay on 786-0 renal of over 100 µM.
Turning to `ClCc1nnc2n1-c1ccc(Cl)cc1SC2`, the TGI was 4.24 µM in the assay on P388 leukemia, 13.2 µM with HOP-18 NSCLC, 7.86 µM in the assay on SN12K1 renal and over 25.2 µM with P388/ADR leukemia.
Regarding `CCNc1nc2c(=O)n(C)c(=O)n(C)c2s1`, the TGI with DLD-1 colon, in the assay on 786-0 renal and with HOP-18 NSCLC was over 100 µM throughout.
For `CC1(C)CCCC2(C)[C@@H]1CC[C@]13C[C@](C)(CC[C@@H]21)[C@@H]3CO` (stereo not given in full), the TGI in the assay with DLD-1 colon and in the assay on RXF-631 renal was over 100 µM in each case.
